Measured values: patent US12077503B2, “Substituted cyclic amides and their use as herbicides” (FMC CORPORATION, priority 2015, dated 2024)
Read-outs that look alike come from different tables or passages of the source.

Experiments:
rice (Oryra sativa) = experiment: Test B flooded paddy test; type: in vivo; settings: Oryza sativa, Flood, 250 g ai/ha, read-out: Rice plant response rating
How it was run: (§1)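 Flooding to 3 cm over soil accompanied treatment, which consisted of adding compound to the standing water around 2-leaf plants; depth was then maintained. Visual assessment versus controls followed at 13 to 15 d (scale 0–100, 0 meaning no effect).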

[1] = system: sedge, umbrella (small-flower umbrella sedge, Cyperus difformis); experiment: Test B flooded paddy test; type: in vivo; settings: Cyperus difformis, Flood, 250 g ai/ha, read-out: Sedge, Umbrella plant response rating
How it was run: as §1

[2] = system: ducksalad (Heteranthera limosa); experiment: Test B flooded paddy test; type: in vivo; settings: Heteranthera limosa, Flood, 250 g ai/ha, read-out: Ducksalad plant response rating
How it was run: as §1

[3] = system: barnyardgrass (Echinochloa crus-galli); experiment: Test B flooded paddy test; type: in vivo; settings: Echinochloa crus-galli, Flood, 250 g ai/ha, read-out: Barnyardgrass plant response rating
How it was run: as §1

[4] = scale of 0 to 100 where 0 is no effect and 100 is complete control
[5] = 0 to 100 scale where 0 is no effect and 100 is complete control

melting point	Structure (SMILES)	pest or weed control at 250 g/ha (rice (Oryra sativa); [4])	pest or weed control at 250 g/ha [1, 4]	pest or weed control at 250 g/ha [2, 4]	pest or weed control at 250 g/ha [3, 4]	pest or weed control at 250 g/ha (rice (Oryra sativa); [5])	pest or weed control at 250 g/ha [1, 5]	pest or weed control at 250 g/ha [2, 5]	pest or weed control at 250 g/ha [3, 5]
133 to 136 °C	CN1CC(c2cccc(C=O)c2)C(C(=O)Nc2ccccc2F)C1=O (stereo not drawn) [Compound 844]	0%	0%	0%	0%				
150 to 153 °C	O=C1NCC(c2cccc(I)c2)C1C(=O)Nc1ccccc1F (stereo not drawn) [Compound 845]	20%	0%	0%	30%				
192 to 195 °C	O=C1NC[C@H](c2cncc(C(F)(F)F)c2)[C@H]1C(=O)Nc1ccccc1F [Compound 887]	0%	0%	65%	50%				
	CN1CC[C@H](c2ccc(F)cc2)[C@@H](C(=O)Nc2ccccc2F)C1=O [Compound 917]	0%	0%	40%	0%				
	COc1ccc(CN2CC[C@H](c3ccc(F)cc3)[C@@H](C(=O)Nc3cccc(F)c3F)C2=O)cc1 [Compound 919]	0%	0%	0%	0%				
	O=C(Nc1cccc(F)c1F)[C@H]1C(=O)N(C2CC2)CC[C@@H]1c1cccc(C(F)(F)F)c1 [Compound 925]	0%	0%	0%	0%				
	Cc1cc([C@H]2CN(C)C(=O)[C@@H]2C(=O)Nc2cccc(F)c2F)ccc1Cl [Compound 929]	0%	0%	60%	40%				
	Cc1cc([C@H]2CN(C)C(=O)[C@@H]2C(=O)Nc2ccc(F)c(F)c2F)ccc1Cl [Compound 931]	0%	0%	60%	65%				
	Cc1cc([C@H]2CN(C)C(=O)[C@@H]2C(=O)Nc2ccccc2C(F)(F)F)ccc1Cl [Compound 932]	0%	0%	30%	0%				
94 to 97 °C	C=CCOc1cccc(C2CN(C)C(=O)C2C(=O)Nc2cccc(F)c2F)c1 (stereo not drawn) [Compound 933]	0%	0%	60%	60%				
	CC(C)COc1cccc([C@H]2CN(C)C(=O)[C@@H]2C(=O)Nc2ccccc2F)c1 [Compound 1028]					10%	0%	80%	20%
	CC(C)COc1cccc([C@H]2CN(C)C(=O)[C@@H]2C(=O)Nc2cccc(F)c2F)c1 [Compound 1029]					0%	0%	85%	0%
	Cc1ccc([C@H]2CNC(=O)[C@@H]2C(=O)Nc2ccccc2S(C)(=O)=O)cc1C [Compound 1037]					0%	0%	100%	25%
	Cc1ccc([C@H]2CN(C)C(=O)[C@@H]2C(=O)Nc2cccc(F)c2F)cc1C [Compound 1039]					0%	0%	90%	65%
	Cc1cc([C@H]2CNC(=O)[C@@H]2C(=O)Nc2ccc(F)cc2F)ccc1C(F)(F)F [Compound 1043]					0%	0%	90%	0%
	CN1C[C@H](c2cscn2)[C@@H](C(=O)Nc2cccc(F)c2F)C1=O [Compound 1113]					20%	0%	30%	0%
	CN1C[C@H](c2csc3ccccc23)[C@@H](C(=O)Nc2cccc(F)c2F)C1=O [Compound 1115]					30%	0%	90%	45%
	O=C1NC[C@H](c2csc(C(F)F)c2)[C@H]1C(=O)Nc1ccccc1F [Compound 1118]					40%	0%	100%	65%

melting point	Structure (SMILES)	pest or weed control at 250 g/ha (rice (Oryra sativa); [4])	pest or weed control at 250 g/ha [1, 4]	pest or weed control at 250 g/ha [2, 4]	pest or weed control at 250 g/ha [3, 4]	pest or weed control at 250 g/ha (rice (Oryra sativa); [5])	pest or weed control at 250 g/ha [1, 5]	pest or weed control at 250 g/ha [2, 5]	pest or weed control at 250 g/ha [3, 5]
	O=C1NC[C@H](c2csc(C(F)F)c2)[C@H]1C(=O)Nc1cccc(F)c1F [Compound 1119]					20%	50%	100%	60%
	CN1C[C@H](c2cc(C(F)F)cs2)[C@@H](C(=O)Nc2cccc(F)c2F)C1=O [Compound 1121]					10%	0%	100%	70%
	CCc1cc(CC)cc([C@H]2CNC(=O)[C@@H]2C(=O)Nc2cccc(F)c2F)c1 [Compound 1139]					20%	0%	30%	0%
	Cc1c(F)cccc1NC(=O)[C@H]1C(=O)N(C)C[C@@H]1c1cc(F)cc(F)c1 [Compound 1140]					0%	0%	100%	75%
	CCc1cc([C@H]2CNC(=O)[C@@H]2C(=O)Nc2cccc(F)c2F)cs1 [Compound 1155]					20%	0%	100%	50%
	CCc1cc([C@H]2CN(C)C(=O)[C@@H]2C(=O)Nc2cccc(F)c2F)cs1 [Compound 1157]					0%	0%	98%	55%
	CN1CC[C@H](c2cccc(C(F)(F)F)c2)[C@@H](C(=O)Nc2cccc(F)c2Cl)C1=O [Compound 1158]					0%	0%	80%	60%
	Cc1nc([C@H]2CNC(=O)[C@@H]2C(=O)Nc2ccccc2F)cs1 [Compound 1179]					0%	0%	40%	0%
	Cc1cc([C@H]2CN(C)C(=O)[C@@H]2C(=O)Nc2ccccc2F)on1 [Compound 1195]					20%	0%	0%	20%
	Cc1c(F)cccc1NC(=O)[C@H]1C(=O)N(C)C[C@@H]1c1ccc(C(F)(F)F)nc1 [Compound 1197]					0%	0%	100%	70%
	COc1cc(C(F)(F)F)ccc1[C@H]1CNC(=O)[C@@H]1C(=O)Nc1ccccc1F [Compound 1202]					0%	0%	100%	0%
	COc1ccc([C@H]2CN(C)C(=O)[C@@H]2C(=O)Nc2cccc(F)c2F)c(OC)c1 [Compound 1209]					0%	0%	50%	0%
	COc1cc([C@H]2CN(C)C(=O)[C@@H]2C(=O)Nc2cccc(F)c2F)cc(OC)c1OC [Compound 1210]					20%	0%	30%	50%
	CSc1ccccc1NC(=O)[C@H]1C(=O)N(C)C[C@@H]1c1ccc(OC(F)F)cc1 [Compound 1212]					0%	0%	95%	0%
	Cc1ccc([C@H]2CCN(C)C(=O)[C@@H]2C(=O)Nc2ccc(F)c(F)c2F)cc1 [Compound 1221]					0%	0%	100%	85%
	CSc1ccccc1NC(=O)[C@H]1C(=O)N(C)CC[C@@H]1c1ccc(C)cc1 [Compound 1222]					15%	70%	65%	0%
	Cc1c(F)cccc1NC(=O)[C@H]1C(=O)N(C)C[C@@H]1c1ccc(F)cc1 [Compound 1235]					80%	75%	90%	100%
